Source: US12595239B2, “Substituted isoxazoline derivatives” (BASF SE, priority 2021, dated 2026)

Key:
Format in all cases: in vivo
[1] = test system: Spodoptera eridania; test: B.11 Southern Armyworm 2nd instar larvae, lima bean foliar spray test; settings: 96 h, 4 days after treatment, read-out: mortality in comparison with untreated controls
Method: The active compounds were formulated by a Tecan liquid handler in 100% cyclohexanone as a 10′000 ppm solution supplied in tubes. The 10′000 ppm solution was serially diluted in 100% cyclohexanone to make interim solutions. These served as stock solutions for which final dilutions were made by the Tecan in 50% acetone:50% water (v/v) into 10 or 20 ml glass vials. A nonionic surfactant (Kinetic®) was included in the solution at a volume of 0.01% (v/v). The vials were then inserted into an automated electrostatic sprayer equipped with an atomizing nozzle for application to plants/insects. Lima bean plants (variety Sieva) were grown 2 plants to a pot and selected for treatment at the 1st true leaf stage. Test solutions were sprayed onto the foliage by an automated electrostatic plant sprayer equipped with an atomizing spray nozzle. The plants were dried in the sprayer fume hood and then removed from the sprayer. Each pot was placed into perforated plastic bags with a zip closure. Ten to 11 armyworm larvae were placed into the bag and the bags zipped closed. Test plants were maintained in a growth room at about 25° C. and about 20-40% relative humidity for 4 days, avoiding direct exposure to fluorescent light (14:10 light:dark photo-period) to prevent trapping of heat inside the bags. Mortality and reduced feeding were assessed 4 days after treatment, compared to untreated control plants.

[2] = test system: Dichromothrips corbetti; test: B.7 Orchid Thrips, floral-immersion test; settings: adult thrips, 72 hours after treatment, read-out: mortality in comparison with untreated controls
Method: Dichromothrips corbetti adults used for bioassay were obtained from a colony maintained continuously under laboratory conditions. For testing purposes, the test compound was diluted in a 1:1 mixture of acetone:water (vol:vol), plus Kinetic at a rate of 0.01% v/v.
Thrips potency of each compound was evaluated by using a floral-immersion technique. Each orchid petal was dipped into treatment solution and allowed to dry in Petri dishes. Treated petals were placed into individual re-sealable plastic along with about 20 adult thrips. All test arenas were held under dark condition and a temperature of about 28° C. for duration of the assay. The percent mortality was recorded 72 hours after treatment.

[3] = test system: Tetranychus kanzawai; test: B.10 Red Spider Mite, cowpea bean spray test; settings: 72 hours after treatment, read-out: mortality in comparison with untreated controls
Method: The active compound was dissolved at the desired concentration in a mixture of 1:1 (vol:vol) distilled water:acetone. Add surfactant (Kinetic) was added at a rate of 0.01% (vol/vol). The test solution was prepared at the day of use. Potted cowpea beans of 4-5 days of age were cleaned with tap water and sprayed with I-2 ml of the test solution using air driven DeVilbiss® hand atomizer at 20-30 psi (≈1,38 to 2,07 bar). The treated plants were allowed to air dry and afterwards inoculated with 30 or more mites by clipping a cassava leaf section from rearing population. Treated plants were placed inside a holding room at about 25-26° C. and about 65-70% relative humidity. Percent mortality was assessed 72 hours after treatment.

[4] = test system: Nezara viridula; test: B.8 Green Soldier Stink Bug, soybean pod spray test; settings: 120 h, late 3rd instar, after 5 days, read-out: mortality in comparison with untreated controls
Method: The active compound was dissolved at the desired concentration in a mixture of 1:1 (vol:vol) distilled water:aceteone. Surfactant (Kinetic) was added at a rate of 0.01% (vol/vol). The test solution was prepared at the day of use. Soybean pods were placed in 90×50 mm glass Petri dishes lined with moistened filter paper and inoculated with ten late 3rd instar N. viridula. Using a hand atomizer, an approximately 2 ml solution was sprayed into each Petri dish. Treated setup was kept at about 25-26° C. and relative humidity of about 65-70%. Percent mortality was recorded after 5 days.

[5] = test system: Plutella xylostella; test: B.6 Diamond Back Moth, cabbage leaf disc dip test; settings: foliar, 3rd instar larvae, 72 hours after treatment, read-out: mortality in comparison with untreated controls
Method: The active compound was dissolved at the desired concentration in a mixture of 1:1 (vol:vol) distilled water:acetone. Surfactant (Kinetic) was added at a rate of 0.01% (vol/vol). The test solution was prepared at the day of use. Cabbage leaf discs (60 mm in diameter) were dipped in test solution and air-dried. Treated leaves were placed in petri dishes lined with moistened filter paper and inoculated with ten 3rd instar larvae. Mortality was recorded 72 hours after treatment. Feeding damages were also recorded using a scale of 0-100%.

[6] = test system: Bemisia argentifolii; test: B.12 Silverleaf Whitefly (adults), cotton plant spray test; settings: 72 h, 3 days after treatment, read-out: mortality in comparison with untreated controls
Method: The active compounds were formulated by a Tecan liquid handler in 100% cyclohexanone as a 10,000-ppm solution supplied in tubes. The 10,000-ppm solution was serially diluted in 100% cyclohexanone to make interim solutions. These served as stock solutions for which final dilutions were made by the Tecan in 50% acetone:50% water (v/v) into 5 or 10 ml glass vials. A nonionic surfactant (Kinetic®) was included in the solution at a volume of 0.01% (v/v). The vials were then inserted into an automated electrostatic sprayer equipped with an atomizing nozzle for application to plants/insects. Cotton plants at the cotyledon stage (one plant per pot) were sprayed by an automated electrostatic plant sprayer equipped with an atomizing spray nozzle. The plants were dried in the sprayer fume hood and then removed from the sprayer. Each pot was placed into a plastic cup and about 10 to 12 whitefly adults (approximately 3-5 days old) were introduced. The insects were collected using an aspirator and a nontoxic Tygon® tubing connected to a barrier pipette tip. The tip, containing the collected insects, was then gently inserted into the soil containing the treated plant, allowing insects to crawl out of the tip to reach the foliage for feeding. Cups were covered with a reusable screened lid. Test plants were maintained in a growth room at about 25° C. and about 20-40% relative humidity for 3 days, avoiding direct exposure to fluorescent light (14:10 light:dark photoperiod) to prevent trapping of heat inside the cup. Mortality was assessed 3 days after treatment, compared to untreated control plants.

[7] = test system: Heliothis virescens; test: B.4 Tobacco Budworm, microtiter plate diet test; settings: 120 h, egg and larval mortality, 5 days, read-out: mortality in comparison with untreated controls
Method: For evaluating control of Tobacco Budworm, the test unit consisted of 96-well-microtiter plates containing an insect diet and 15-25 H. virescens eggs. The compounds were formulated using a solution containing 75% v/v water and 25% v/v DMSO. Different concentrations of formulated compounds were sprayed onto the insect diet at 10 μl, using a custom-built micro atomizer, at two replications. After application, microtiter plates were incubated at about 28±1° C. and about 80±5% relative humidity for 5 days. Egg and larval mortality was then visually assessed.

[8] = test system: Anthonomus grandis; test: B.1 Boll weevil (Anthonomus grandis), 96-well microtiter plate diet test; settings: 120 h, egg and larval mortality, 5 days, read-out: mortality in comparison with untreated controls
Method: For evaluating control of boll weevil, the test unit consisted of 96-well-microtiter plates containing an insect diet and 5-10 A. grandis eggs.
The compounds were formulated using a solution containing 75% v/v water and 25% v/v DMSO. Different concentrations of formulated compounds were sprayed onto the insect diet at 5 μl, using a custom-built micro atomizer, at two replications.
After application, microtiter plates were incubated at about 25±1° C. and about 75±5% relative humidity for 5 days. Egg and larval mortality were then visually assessed.

[9] = test system: Myzus persicae; test: B.3 Green Peach Aphid (mixed life stages), systemic artificial diet test; settings: 72 h, treated aphid diet, 3 days, read-out: mortality in comparison with untreated controls
Description: For evaluating control of Green Peach Aphid through systemic means the test unit consisted of 96-well-microtiter plates containing liquid artificial diet under an artificial membrane. The compounds were formulated using a solution containing 75% v/v water and 25% v/v DMSO. Different concentrations of formulated compounds were pipetted into the aphid diet, using a custom-built pipette, at two replications. After application, 5-8 adult aphids were placed on the artificial membrane inside the microtiter plate wells. The aphids were then allowed to suck on the treated aphid diet and incubated at about 23±1° C. and about 50±5% relative humidity for 3 days. Aphid mortality and fecundity was then visually assessed.

[10] = test system: Aedes aegypti; test: whole plant or invertebrate; settings: 48 h, larval mortality, 2 days, read-out: mortality in comparison with untreated controls
Method: For evaluating control of Yellow Fever Mosquito, the test unit consisted of 96-well-microtiter plates containing 200 μl of tap water per well and 5-15 freshly hatched A. aegypti larvae. The active compounds were formulated using a solution containing 75% (v/v) water and 25% (v/v) DMSO. Different concentrations of formulated compounds or mixtures were sprayed onto the insect diet at 2.5 μl, using a custom-built micro atomizer, at two replications.
After application, microtiter plates were incubated at 28±1° C., 80±5% RH for 2 days. Larval mortality was then visually assessed.

[11] = test system: Nephotettix virescens; test: B.9 Rice Green Leafhopper, rice seedling spray test; settings: adults, after 72 hours, read-out: mortality in comparison with untreated controls
Method: Four to five-week old rice seedlings with cut upper leaf portion were cleaned and washed 24 hours before spraying. The active compounds were formulated in 1:1 acetone:water (vol:vol), and 0.01% vol/vol surfactant (Kinetic) was added. Potted rice seedlings were sprayed with 5-6 ml test solution, air dried, covered with Mylar cages and inoculated with 10 adults. Treated rice plants were kept at about 28-29° C. and relative humidity of about 50-60%. Percent mortality was recorded after 72 hours.

[12] = test system: Trialeurodes vaporarirorum; test: B.2 Greenhouse Whitefly, microtiter plate eggplant leaf disk test; settings: foliar, 144 h, mortality of hatched crawlers, 6 days, read-out: mortality in comparison with untreated controls
Method: For evaluating control of Greenhouse Whitefly, the test unit consisted of 96-well-microtiter plates containing a leaf disk of eggplant leaf disk with Whitefly eggs. The compounds or mixtures were formulated using a solution containing 75% water and 25% DMSO. Different concentrations of formulated were sprayed onto the insect diet at 2.5 μl, using a custom-built micro atomizer, at two replications. After application, microtiter plates were incubated at 23±1° C., 65±5% RH for 6 days. Mortality of hatched crawlers was then visually assessed.

CCOC(=O)N(C1=NOC(c2cc(Cl)cc(Cl)c2)(C(F)(F)F)C1)c1ccc(Cl)c(C(=O)NC2(C#N)CC2)c1 (stereo not shown) [I-111, ethyl N-[4-chloro-3-[(1-cyanocyclopropyl)carbamoyl]phenyl]-N-[5-(3,5-dichlorophenyl)-5-(trifluoromethyl)-4H-isoxazol-3-yl]carbamate]
≥ 75%: mortality at 300 ppm [1] | mortality at 300 ppm [2] | mortality at 300 ppm [3] | mortality at 300 ppm [4] | mortality at 300 ppm [5] | mortality at 300 ppm [6]

Nc1c(F)ccc(NC(=O)c2cc(NC3=NOC(c4cc(Cl)cc(Cl)c4)(C(F)(F)F)C3)ccc2Cl)c1F (stereo not shown) [I-4, N-(3-amino-2,4-difluoro-phenyl)-2-chloro-5-[[5-(3,5-dichlorophenyl)-5-(trifluoromethyl)-4H-isoxazol-3-yl]amino]benzamide]
≥ 75%: mortality at 2500 ppm [7] | mortality at 300 ppm [2] | mortality at 2500 ppm [8] | mortality at 300 ppm [4] | mortality at 300 ppm [5] | mortality at 2500 ppm [9] | mortality at 2500 ppm [10]

CCN1OC[C@@H](NC(=O)c2cc(N(C)C3=NOC(c4cc(Cl)c(F)c(Cl)c4)(C(F)(F)F)C3)ccc2Cl)C1=O (stereo partly drawn) [I-119, 2-chloro-5-[[5-(3,5-dichloro-4-fluoro-phenyl)-5-(trifluoromethyl)-4H-isoxazol-3-yl]-methyl-amino]-N-[(4R)-2-ethyl-3-oxo-isoxazolidin-4-yl]benzamide]
≥ 75%: mortality at 300 ppm [11] | mortality at 300 ppm [2] | mortality at 300 ppm [4] | mortality at 300 ppm [5]

N#CC1(NC(=O)c2cc(N(CC3CC3)C3=NOC(c4cc(Cl)cc(Cl)c4)(C(F)(F)F)C3)ccc2Cl)CC1 (stereo not shown) [I-60, 2-chloro-N-(1-cyanocyclopropyl)-5-[cyclopropylmethyl-[5-(3,5-dichlorophenyl)-5-(trifluoromethyl)-4H-isoxazol-3-yl]amino]benzamide]
≥ 75%: mortality at 300 ppm [11] | mortality at 300 ppm [1] | mortality at 300 ppm [2] | mortality at 300 ppm [4] | mortality at 300 ppm [5]

O=C(NC1C[S+]([O-])C1)c1cc(NC2=NOC(c3cc(Cl)c(F)c(Cl)c3)(C(F)(F)F)C2)ccc1Cl (stereo not shown) [I-61, 2-chloro-5-[[5-(3,5-dichloro-4-fluoro-phenyl)-5-(trifluoromethyl)-4H-isoxazol-3-yl]amino]-N-(1-oxothietan-3-yl)benzamide]
≥ 75%: mortality at 300 ppm [1] | mortality at 300 ppm [2] | mortality at 300 ppm [3] | mortality at 300 ppm [5]

O=C(Nc1ccc(F)cc1F)c1cc(NC2=NOC(c3cccc(C(F)(F)F)c3)(C(F)(F)F)C2)ccc1Cl (stereo not shown) [I-38, 2-chloro-N-(2,4-difluorophenyl)-5-[[5-(trifluoromethyl)-5-[3-(trifluoromethyl)phenyl]-4H-isoxazol-3-yl]amino]benzamide]
≥ 75%: mortality at 300 ppm [1] | mortality at 300 ppm [2] | mortality at 300 ppm [4] | mortality at 300 ppm [5] | mortality at 2500 ppm [12]
